“Also recorded” adds a separate entry of the source. Where two headings read alike, the source gives them in different places. Peptide text beside a SMILES is read from it.

The target in one series is CHR-peptide C34 (Human immunodeficiency virus type 1 group M subtype B, UniProt P04578). Type of series: binding, HIV-1. As to conditions: CD spectroscopy. The protocol:
(§1) All the N-peptides were diluted in ddH2O (pH 7.0) and all the C-peptides or the mixture of the N- and C-peptides were diluted in 50 mM sodium phosphate and 150 mM NaCl (PBS, pH 7.2) to a final concentration of 10 μM. The individual peptides and their mixtures were incubated in a 37° C. water bath for 0.5 h before testing. […] The α-helicity was calculated from the CD signal by dividing the mean residue ellipticity at 222 nm by the value expected for 100% helix formation (i.e., 33,000° cm^2 dmol^−1) according to previous studies. Thermal denaturation of the samples was monitored at 222 nm by applying a temperature gradient from 20° C. to 98° C. with a 2-degree interval, an equilibration time of 1.5 min, and an averaging time of 60 s. The midpoint of the thermal unfolding transition (Tm) values was calculated using Jasco software utilities as described previously.

Series [1] deals with HIV-1IIIB (subtype B, X4). The protocol: (§2) In brief, 1×10^4 MT-2 cells were infected with HIV-1IIIB in 200 μl RPMI 1640 medium containing 10% FBS in the presence or absence of testing compounds at graded concentrations overnight. Then the culture supernatants were removed and fresh media containing no testing compounds were added. On the fourth day post-infection, 100 μl of culture supernatants were collected from each well, mixed with equal volumes of 5% Triton X-100 and assayed for p24 antigen, which was quantitated by ELISA. Briefly, wells of polystyrene plates (Immulon 1B, Dynex Technology, Chantilly, Va.) were coated with HIV immunoglobulin (HIVIG), which was prepared from plasma of HIV-seropositive donors with high neutralizing titers against HIV-1IIIB, in 0.085 M carbonate-bicarbonate buffer (pH 9.6) at 4° C. overnight, followed by washes with washing buffer (0.01M PBS containing 0.05% Tween-20) and blocking with PBS containing 1% dry fat-free milk (Bio-Rad Inc., Hercules, Calif.). Virus lysates were added to the wells and incubated at 37° C. for 1 h. […] Reactions were terminated by addition of 1N H2SO4. Absorbance at 450 nm was recorded in an ELISA reader (Ultra 386, TECAN, Research Triangle Park, NC). Recombinant protein p24 purchased from US Biological (Swampscott, Mass.) was included for establishing standard dose response curves. […] The percentage of inhibition of p24 production was calculated as previously described.

Series [2] relates to HIV-1IIIB-mediated cell-cell fusion. The protocol: Briefly, H9/HIV-1IIIB cells were pre-labeled with a fluorescent dye, Calcein AM (Molecular Probes, Inc., Eugene, Oreg.), and incubated with a testing compound at a graded concentration at 37° C. for 30 min in a 96-well cell culture plate. Then the CD4^+ MT-2 cells were added to the H9/HIV-1IIIB cells at a ratio of 10:1, followed by incubation at 37° C. for 2 hrs. The fused and unfused Calcein-labeled HIV-1-infected cells were counted under an inverted fluorescence microscope (Zeiss, Germany) with an eyepiece micrometer disc. The percent inhibition of cell fusion by a compound and the EC50 and EC90 values were calculated using the software CalcuSyn.

The next series concerns HIV-1IIIB. The series is described as follows: Proteinase K digestion, remaining antiviral activity against HIV-1IIIB infection. As to conditions: 1 μU/ml Proteinase K in PBS, 37° C., 3 hrs. On the procedure:
as §2

For series [3], the system named is HIV-1 93IN101 (subtype C, R5). The format is cell-based. On the procedure:
For inhibition of infection by the primary HIV-1 isolate 93IN101 (subtype C, R5), the peripheral blood mononuclear cells (PBMCs) were isolated from the blood of healthy donors using a standard density gradient (Histopaque-1077, Sigma) centrifugation. After incubation at 37° C. for 2 h, the nonadherent cells were collected and resuspended at 5×10^5/ml in RPMI medium 1640 containing 10% FBS, 5 μg of phytohemagglutinin (PHA)/ml, and 100 U of interleukin-2/ml, followed by incubation at 37° C. for 3 days. The PHA-stimulated cells were infected with the primary HIV-1 isolate at a multiplicity of infection (MOI) of 0.01 in the absence or presence of N-Fd peptides at graded concentrations. The supernatants were collected on the 7th day post-infection and tested for p24 antigen by ELISA.

In another series the target is T1, Proteinase K (Parengyodontium album, UniProt P06873).
T1 construct: purchased Sigma
T1 sequence (P06873 106-384): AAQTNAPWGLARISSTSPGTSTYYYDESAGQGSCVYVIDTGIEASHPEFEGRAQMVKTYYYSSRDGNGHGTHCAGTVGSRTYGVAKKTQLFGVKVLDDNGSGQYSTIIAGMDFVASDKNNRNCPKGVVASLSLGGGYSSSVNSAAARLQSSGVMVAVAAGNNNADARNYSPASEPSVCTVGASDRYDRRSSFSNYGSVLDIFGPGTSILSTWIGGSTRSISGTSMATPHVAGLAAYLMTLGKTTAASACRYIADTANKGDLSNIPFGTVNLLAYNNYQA
Briefly: Proteinase K digestion, residual peptide by direct ELISA. Type of series: in vitro ADME. As to conditions: 1 μU/ml Proteinase K in PBS, 37° C. The source says: T20 was used as a control. […] Samples were collected at different times and centrifuged immediately.
For orientation: ELISA stands for enzyme-linked immunosorbent assay.

The subject of series [4] is HIV-1NL4-3(36G) V38E/N42S. As to conditions: T20-resistant. On the procedure: (§3) In brief, 1×10^4 MT-2 cells were infected with HIV-1IIIB in 200 μl RPMI 1640 medium containing 10% FBS in the presence or absence of testing compounds at graded concentrations overnight. Then the culture supernatants were removed and fresh media containing no testing compounds were added. On the fourth day post-infection, 100 μl of culture supernatants were collected from each well, mixed with equal volumes of 5% Triton X-100 and assayed for p24 antigen, which was quantitated by ELISA. Briefly, wells of polystyrene plates (Immulon 1B, Dynex Technology, Chantilly, Va.) were coated with HIV immunoglobulin (HIVIG), which was prepared from plasma of HIV-seropositive donors with high neutralizing titers against HIV-1IIIB, in 0.085 M carbonate-bicarbonate buffer (pH 9.6) at 4° C. overnight, followed by washes with washing buffer (0.01M PBS containing 0.05% Tween-20) and blocking with PBS containing 1% dry fat-free milk (Bio-Rad Inc., Hercules, Calif.). Virus lysates were added to the wells and incubated at 37° C. for 1 h. […] Reactions were terminated by addition of 1N H2SO4. Absorbance at 450 nm was recorded in an ELISA reader (Ultra 386, TECAN, Research Triangle Park, NC). Recombinant protein p24 purchased from US Biological (Swampscott, Mass.) was included for establishing standard dose response curves. Each sample was tested in triplicate. The percentage of inhibition of p24 production was calculated as previously described.
(§4) Mutations in the NHR region of HIV-1 virus NL4-3 cause genetic resistance to T20.

In series [5] the test system is HIV-1NL4-3(36G) N42T/N43K. As to conditions: T20-resistant. The protocol: as §3, §4
The test system of another series is HIV-1NL4-3(36G) N42S. As to conditions: T20-sensitive. The protocol:
as §3, §4

Series [6] deals with HIV-1NL4-3(36G) V38A/N42D. As to conditions: T20-resistant. On the procedure: as §3, §4
Series [7] is described as follows: CD spectroscopy of secondary structure (α-helicity) of the individual peptides. The format is physicochemical. As to conditions: CD at 222 nm, 10 μM, ddH2O pH 7.0; spectrum of free Fd subtracted. The protocol:
as §1

For series [8], the system named is HIV-1 Bal (subtype B, R5). The format is cell-based. The protocol: The cells were harvested and lysed on the fourth day post-infection with 50p1 of lysing reagent. The luciferase activity was analyzed using a luciferase kit (Promega, Madison, Wis.) and a luminometer (Ultra 386) according to the manufacturer's instructions. The percent inhibition of luciferase activity was calculated.

Series [9] is described as follows: SDS-PAGE analysis of trimer stability. Type of series: physicochemical. As to conditions: 2% SDS sample buffer, room temperature or boiled 5 min. On the procedure:
Purified N36Fd and N28Fd were analyzed by SDS-PAGE. […] The sample was boiled for 5 min or kept at room temperature (RT) before loading onto a 10-20% Tricine-Glycine gel (Invitrogen). The electrophoresis was conducted in SDS-PAGE running buffer with 125V constant voltage at 4° C. The gels were stained with SimplyBlue SafeStain (Invitrogen).

The test system of the next series is HIV-1-mediated fusion. As to conditions: background statement; cited from earlier work.

CHR-peptide C34, sequence (P04578 628-661): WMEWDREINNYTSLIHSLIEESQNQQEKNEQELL

With `CC[C@H](C)[C@H](N)C(=O)N[C@@H](CCC(=O)O)C(=O)N[C@@H](C)C(=O)N[C@@H](CCC(N)=O)C(=O)N[C@@H](CCC(N)=O)C(=O)N[C@@H](Cc1c[nH]cn1)C(=O)N[C@@H](CC(C)C)C(=O)N[C@@H](CC(C)C)C(=O)N[C@@H](CCC(N)=O)C(=O)N[C@@H](CC(C)C)C(=O)N[C@H](C(=O)N[C@H](C(=O)N[C@@H](Cc1c[nH]c2ccccc12)C(=O)NCC(=O)N[C@H](C(=O)N[C@@H](CCCCN)C(=O)N[C@@H](CCC(N)=O)C(=O)N[C@@H](CC(C)C)C(=O)N[C@@H](CCC(N)=O)C(=O)N[C@@H](C)C(=O)N[C@@H](CCCNC(=N)N)C(=O)N[C@H](C(=O)N[C@@H](CC(C)C)C(=O)N[C@@H](C)C(=O)N[C@H](C(=O)N[C@@H](CCC(=O)O)C(=O)N[C@@H](CCCNC(=N)N)C(=O)N[C@@H](Cc1ccc(O)cc1)C(=O)O)C(C)C)[C@@H](C)CC)[C@@H](C)CC)C(C)C)[C@@H](C)O` [N28] (H-IEAQQHLLQLTVWGIKQLQARILAVERY-OH; N-terminus and C-terminus assumed), the “complex formation with C34” value at CHR-peptide C34 is listed as “could not form a complex with C34”. In addition, the half-maximal inhibitory concentration (IC50) – broadly, the concentration needed to halve the response being measured – in [1] (1IIIB (subtype B, X4)) is above 3000 nM.
For the compound “IEAQQHLLQLTVWGIKQLQARILAVERYGYIPEAPRDGQAYVRKDGEWVLLSTFL [N28Fd]”, in series [2] (N36Fd vs N36, N28Fd vs N28), the “fold more potent than the free N-peptide in inhibiting cell-cell fusion” value is on record as above 138 fold. For the same compound, the IC50 in series [2] (read-out: IC50, inhibition of HIV-1-induced cell-cell fusion, H9/HIV-1IIIB + MT-2 cells, 2 hrs) amounted to 21 nM; in series [3] (PHA-stimulated PBMCs, p24 on day 7, read-out: IC50 against infection by HIV-1 93IN101), 1.27 nM; in series [4], 46.4 ± 4.49 nM; in series [5] it was 30.6 ± 6.07 nM; in the series on HIV-1NL4-3(36G) N42S, 26.95 ± 0.02 nM; in series [6] it was 29 ± 0.82 nM. For the same compound, the IC50 turned out to be 9.8 nM in series [8] (TZM-bl cells, luciferase, read-out: IC50 against infection by HIV-1 Bal) and 39 nM in [1] (read-out: IC50, inhibition of HIV-1IIIB replication (p24), MT-2 cells, day 4 post-infection). Moreover, in the series with HIV-1IIIB, the “remaining antiviral activity against HIV-1IIIB infection, % of original” value amounted to 97%. Moreover, in the series with Proteinase K (3 hrs), the “residual amount, % of original, detected by ELISA” value was determined as 84%. In addition, in series [7], the “α-helicity of the N36 or N28 portion in N36Fd or N28Fd” value amounted to 30.9%. Besides, the “trimer stability in SDS-PAGE” value in series [9] is “SDS-resistant but heat-sensitive trimer; also recorded: more stable than N36Fd under SDS conditions”.
With enfuvirtide, the “remaining antiviral activity against HIV-1IIIB infection, % of original” value with HIV-1IIIB is “completely lost its anti-HIV-1 activity”. For the same compound, the IC50 in [3] (93IN101 (subtype C, R5, 2 h)) is 1.75 nM; in series [4], 1390 nM; in series [5], 374 nM; in the series with HIV-1NL4-3(36G) N42S it was 30 nM; in series [6], 2300 nM; in [8] (Bal (subtype B, R5)), 3.4 nM. On Proteinase K (read-out: residual amount, % of original, detected by ELISA), the remaining at 3 h is 17%. Moreover, the “inhibition of HIV-1-mediated fusion” value with HIV-1-mediated fusion is listed as “low nanomolar level”.

(Values after patent publication US9724383B2, “Stabilized trimeric HIV-1 GP41 fusion inhibitor polypeptides comprising the N-terminal heptad repeat (NHR) and foldon (FD) trimerization motif” (New York Blood Center, Inc., priority 2009, dated 2017).)
